Assays:
MOR = MOR (Homo sapiens, UniProt P35372); experiment: cell-based; settings: EC20 Oxycodone agonism of MOR
[1] = Plasma concentration time-course after SC or IP dosing; assay type: in vivo; settings: 15 mg/kg, intraperitoneal or subcutaneous, CD-1 mice, blood samples
Method: To be useful as a therapeutic, a MOR PAM must not only be able to activate endogenous and non-endogenous orthosteric ligands of the MOR, it must also persist in the body in concentrations sufficient to exert its allosteric effect. To test intracorporeal persistence, murine models were chosen, based on the preponderance of data available linking endogenous opioids to analgesic mechanisms. Compound 9 (Table 10) was formulated for dosing in CD-1 mice. Two mice per group were tested and each group was administered 15 mg/kg of the compound. Concentrations of the compound were measured by mass spectrometry of blood samples.

Sprague-Dawley rats = experiment: Respiratory depression: blood oxygen saturation by pulse oximetry; assay type: in vivo; settings: subcutaneous; morphine 10 mg/kg, compound 9 15, 30, 60 mg/kg; 90 minutes
Method: Respiratory depression is a significant side effect associated with opioid treatment of acute and chronic pain. Drug-related overdose deaths are often a function of the respiratory depression which occurs with opioid use. Efforts to generate analgesics that dissociate pain relief from side effects are critical to the advancement of public health. […] […].
Blood oxygen saturation was assessed in awake rats with the MouseOx oximeter system (Starr Life Sciences, Holliston, Mass.). Up to 5 samples were measured every 5 minutes for 15 minutes prior to dosing and 90 minutes after dosing. Each animal was habituated to the device over several days prior to the study.

MOR, sequence (P35372 whole entry): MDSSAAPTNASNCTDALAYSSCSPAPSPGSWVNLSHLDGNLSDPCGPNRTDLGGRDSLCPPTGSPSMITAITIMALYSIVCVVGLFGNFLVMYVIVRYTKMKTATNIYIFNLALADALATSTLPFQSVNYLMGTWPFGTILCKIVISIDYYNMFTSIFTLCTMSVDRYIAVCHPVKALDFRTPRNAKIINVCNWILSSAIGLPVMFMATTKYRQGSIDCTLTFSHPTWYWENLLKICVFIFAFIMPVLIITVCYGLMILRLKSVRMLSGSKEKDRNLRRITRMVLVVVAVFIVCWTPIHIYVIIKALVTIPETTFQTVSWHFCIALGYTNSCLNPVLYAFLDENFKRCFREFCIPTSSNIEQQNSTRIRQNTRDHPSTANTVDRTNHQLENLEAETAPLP

Fc1cnc(Cl)nc1N1CCCCC1c1cccc(C(F)(F)F)c1 (single isomer, unassigned) [compound 9]
EC50 (MOR; RC50, cAMP): 3.18 µM | Max. Response (MOR; cAMP): 40 | exposure and half-life [1]: exposures and an a half-life appropriate for in vivo studies | oxygen saturation / respiratory depression (Sprague-Dawley rats): did not induce respiratory depression

Source: US11071731B2, “Allosteric modulators of the mu opioid receptor” (Chiromics, LLC, priority 2017, dated 2021)
